Source: ChEMBL document CHEMBL5303573, “Mapping human microbiome drug metabolism by gut bacteria and their genes” (Nature, 2019)

conditions: bifidobacterium adolescentis, 12 h, 2 µM
Description: The drug is tested on Bifidobacterium adolescentis strain: ATCC 15703 for biotransformation. The drug concentrations were measured before and after a 12-h incubation by liquid-chromatography-coupled mass spectrometry (LC–MS)

| SMILES | Bacterial Biotransformation |
| --- | --- |
| CC(C)NCC(O)c1ccc(NS(C)(=O)=O)cc1 (stereo unspecified) [SOTALOL] | Compound NOT metabolized |
| CC(=O)CC(c1ccccc1)c1c(O)c2ccccc2oc1=O (stereo unspecified) [WARFARIN] | Compound NOT metabolized |
| O=C(NCc1ccccc1)OCCO [BURAMATE] | Compound NOT metabolized |
| CN1[C@@H]2CC[C@H]1C[C@@H](OC(=O)c1c[nH]c3ccccc13)C2 [TROPISETRON] | Compound NOT metabolized |
| CC(N)C12CC3CC(CC(C3)C1)C2 (stereo unspecified) [RIMANTADINE] | Compound NOT metabolized |
| CC[C@@]1(O)C(=O)OCc2c1cc1n(c2=O)Cc2cc3c(CN(C)C)c(O)ccc3nc2-1 [TOPOTECAN] | Compound NOT metabolized |
| CCC(COC(=O)c1cc(OC)c(OC)c(OC)c1)(c1ccccc1)N(C)C.O=C(O)/C=C\C(=O)O (stereo unspecified) | Compound metabolized |
| CC(CN(C)C)CN1c2ccccc2CCc2ccccc21.O=C(O)/C=C\C(=O)O (stereo unspecified) [TRIMIPRAMINE MALEATE] | Compound NOT metabolized |

experiment: The drug is tested on Anaerotruncus colihominis strain: DSM17241 for biotransformation. The drug concentrations were measured before and after a 12-h incubation by liquid-chromatography-coupled mass spectrometry (LC–MS); conditions: 2 µM

| SMILES | Bacterial Biotransformation |
| --- | --- |
| CC(C)NCC(O)c1ccc(NS(C)(=O)=O)cc1 (stereo unspecified) [SOTALOL] | Compound NOT metabolized |
| CC(=O)CC(c1ccccc1)c1c(O)c2ccccc2oc1=O (stereo unspecified) [WARFARIN] | Compound NOT metabolized |
| O=C(NCc1ccccc1)OCCO [BURAMATE] | Compound NOT metabolized |
| CN1[C@@H]2CC[C@H]1C[C@@H](OC(=O)c1c[nH]c3ccccc13)C2 [TROPISETRON] | Compound NOT metabolized |
| CC(N)C12CC3CC(CC(C3)C1)C2 (stereo unspecified) [RIMANTADINE] | Compound NOT metabolized |
| CC[C@@]1(O)C(=O)OCc2c1cc1n(c2=O)Cc2cc3c(CN(C)C)c(O)ccc3nc2-1 [TOPOTECAN] | Compound NOT metabolized |
| CCC(COC(=O)c1cc(OC)c(OC)c(OC)c1)(c1ccccc1)N(C)C.O=C(O)/C=C\C(=O)O (stereo unspecified) | Compound metabolized |
| CC(CN(C)C)CN1c2ccccc2CCc2ccccc21.O=C(O)/C=C\C(=O)O (stereo unspecified) [TRIMIPRAMINE MALEATE] | Compound NOT metabolized |

conditions: victivallis vadensis, 12 h, 2 µM
Description: The drug is tested on Victivallis vadensis strain: ATCC BAA-548 for biotransformation. The drug concentrations were measured before and after a 12-h incubation by liquid-chromatography-coupled mass spectrometry (LC–MS)

| SMILES | Bacterial Biotransformation |
| --- | --- |
| CC(C)NCC(O)c1ccc(NS(C)(=O)=O)cc1 (stereo unspecified) [SOTALOL] | Compound NOT metabolized |
| CC(=O)CC(c1ccccc1)c1c(O)c2ccccc2oc1=O (stereo unspecified) [WARFARIN] | Compound NOT metabolized |
| O=C(NCc1ccccc1)OCCO [BURAMATE] | Compound NOT metabolized |
| CN1[C@@H]2CC[C@H]1C[C@@H](OC(=O)c1c[nH]c3ccccc13)C2 [TROPISETRON] | Compound NOT metabolized |
| CC(N)C12CC3CC(CC(C3)C1)C2 (stereo unspecified) [RIMANTADINE] | Compound NOT metabolized |
| CC[C@@]1(O)C(=O)OCc2c1cc1n(c2=O)Cc2cc3c(CN(C)C)c(O)ccc3nc2-1 [TOPOTECAN] | Compound NOT metabolized |
| CCC(COC(=O)c1cc(OC)c(OC)c(OC)c1)(c1ccccc1)N(C)C.O=C(O)/C=C\C(=O)O (stereo unspecified) | Compound metabolized |
| CC(CN(C)C)CN1c2ccccc2CCc2ccccc21.O=C(O)/C=C\C(=O)O (stereo unspecified) [TRIMIPRAMINE MALEATE] | Compound NOT metabolized |

experiment: The drug is tested on Clostridium ramosum strain: DSM1402 for biotransformation. The drug concentrations were measured before and after a 12-h incubation by liquid-chromatography-coupled mass spectrometry (LC–MS); conditions: thomasclavelia ramosa, 2 µM

| SMILES | Bacterial Biotransformation |
| --- | --- |
| CC(C)NCC(O)c1ccc(NS(C)(=O)=O)cc1 (stereo unspecified) [SOTALOL] | Compound NOT metabolized |
| CC(=O)CC(c1ccccc1)c1c(O)c2ccccc2oc1=O (stereo unspecified) [WARFARIN] | Compound NOT metabolized |
| O=C(NCc1ccccc1)OCCO [BURAMATE] | Compound NOT metabolized |
| CN1[C@@H]2CC[C@H]1C[C@@H](OC(=O)c1c[nH]c3ccccc13)C2 [TROPISETRON] | Compound NOT metabolized |
| CC(N)C12CC3CC(CC(C3)C1)C2 (stereo unspecified) [RIMANTADINE] | Compound NOT metabolized |
| CC[C@@]1(O)C(=O)OCc2c1cc1n(c2=O)Cc2cc3c(CN(C)C)c(O)ccc3nc2-1 [TOPOTECAN] | Compound NOT metabolized |
| CCC(COC(=O)c1cc(OC)c(OC)c(OC)c1)(c1ccccc1)N(C)C.O=C(O)/C=C\C(=O)O (stereo unspecified) | Compound NOT metabolized |
| CC(CN(C)C)CN1c2ccccc2CCc2ccccc21.O=C(O)/C=C\C(=O)O (stereo unspecified) [TRIMIPRAMINE MALEATE] | Compound NOT metabolized |

conditions: parabacteroides johnsonii, 12 h, 2 µM
Description: The drug is tested on Parabacteroides johnsonii strain: DSM18315 for biotransformation. The drug concentrations were measured before and after a 12-h incubation by liquid-chromatography-coupled mass spectrometry (LC–MS)

| SMILES | Bacterial Biotransformation |
| --- | --- |
| CC(C)NCC(O)c1ccc(NS(C)(=O)=O)cc1 (stereo unspecified) [SOTALOL] | Compound NOT metabolized |
| CC(=O)CC(c1ccccc1)c1c(O)c2ccccc2oc1=O (stereo unspecified) [WARFARIN] | Compound NOT metabolized |
| O=C(NCc1ccccc1)OCCO [BURAMATE] | Compound NOT metabolized |
| CN1[C@@H]2CC[C@H]1C[C@@H](OC(=O)c1c[nH]c3ccccc13)C2 [TROPISETRON] | Compound NOT metabolized |
| CC(N)C12CC3CC(CC(C3)C1)C2 (stereo unspecified) [RIMANTADINE] | Compound NOT metabolized |
| CC[C@@]1(O)C(=O)OCc2c1cc1n(c2=O)Cc2cc3c(CN(C)C)c(O)ccc3nc2-1 [TOPOTECAN] | Compound NOT metabolized |
| CCC(COC(=O)c1cc(OC)c(OC)c(OC)c1)(c1ccccc1)N(C)C.O=C(O)/C=C\C(=O)O (stereo unspecified) | Compound metabolized |
| CC(CN(C)C)CN1c2ccccc2CCc2ccccc21.O=C(O)/C=C\C(=O)O (stereo unspecified) [TRIMIPRAMINE MALEATE] | Compound NOT metabolized |

conditions: bacteroides fragilis, 12 h, 2 µM
Description: The drug is tested on Bacteroides fragilis strain: 3397 (T10) for biotransformation. The drug concentrations were measured before and after a 12-h incubation by liquid-chromatography-coupled mass spectrometry (LC–MS)

| SMILES | Bacterial Biotransformation |
| --- | --- |
| CC(C)NCC(O)c1ccc(NS(C)(=O)=O)cc1 (stereo unspecified) [SOTALOL] | Compound metabolized |
| CC(=O)CC(c1ccccc1)c1c(O)c2ccccc2oc1=O (stereo unspecified) [WARFARIN] | Compound NOT metabolized |
| O=C(NCc1ccccc1)OCCO [BURAMATE] | Compound NOT metabolized |
| CN1[C@@H]2CC[C@H]1C[C@@H](OC(=O)c1c[nH]c3ccccc13)C2 [TROPISETRON] | Compound NOT metabolized |
| CC(N)C12CC3CC(CC(C3)C1)C2 (stereo unspecified) [RIMANTADINE] | Compound NOT metabolized |
| CC[C@@]1(O)C(=O)OCc2c1cc1n(c2=O)Cc2cc3c(CN(C)C)c(O)ccc3nc2-1 [TOPOTECAN] | Compound NOT metabolized |
| CCC(COC(=O)c1cc(OC)c(OC)c(OC)c1)(c1ccccc1)N(C)C.O=C(O)/C=C\C(=O)O (stereo unspecified) | Compound metabolized |
| CC(CN(C)C)CN1c2ccccc2CCc2ccccc21.O=C(O)/C=C\C(=O)O (stereo unspecified) [TRIMIPRAMINE MALEATE] | Compound NOT metabolized |

experiment: The drug is tested on Eggerthella lenta strain: ATCC25559 for biotransformation. The drug concentrations were measured before and after a 12-h incubation by liquid-chromatography-coupled mass spectrometry (LC–MS); conditions: 2 µM

| SMILES | Bacterial Biotransformation |
| --- | --- |
| CC(C)NCC(O)c1ccc(NS(C)(=O)=O)cc1 (stereo unspecified) [SOTALOL] | Compound NOT metabolized |
| CC(=O)CC(c1ccccc1)c1c(O)c2ccccc2oc1=O (stereo unspecified) [WARFARIN] | Compound NOT metabolized |
| O=C(NCc1ccccc1)OCCO [BURAMATE] | Compound NOT metabolized |
| CN1[C@@H]2CC[C@H]1C[C@@H](OC(=O)c1c[nH]c3ccccc13)C2 [TROPISETRON] | Compound NOT metabolized |
| CC(N)C12CC3CC(CC(C3)C1)C2 (stereo unspecified) [RIMANTADINE] | Compound NOT metabolized |
| CC[C@@]1(O)C(=O)OCc2c1cc1n(c2=O)Cc2cc3c(CN(C)C)c(O)ccc3nc2-1 [TOPOTECAN] | Compound NOT metabolized |
| CCC(COC(=O)c1cc(OC)c(OC)c(OC)c1)(c1ccccc1)N(C)C.O=C(O)/C=C\C(=O)O (stereo unspecified) | Compound metabolized |
| CC(CN(C)C)CN1c2ccccc2CCc2ccccc21.O=C(O)/C=C\C(=O)O (stereo unspecified) [TRIMIPRAMINE MALEATE] | Compound NOT metabolized |
